Measurements: US20240270762A1, “PENICILLIN-BINDING PROTEIN INHIBITORS” (priority 2021, published 2024)
In brackets after ≈: the same amount, converted by molar mass. Read-outs that look alike come from different tables or passages of the source.

Columns and labels:
N. gonorrhoeae WHO Z = assay: Liquid broth MIC in Fastidious broth; details: Neisseria gonorrhoeae
P. aeruginosa CDC-0110 = assay: microbe, parasite or virus in culture; assay type: cell-based; details: Pseudomonas aeruginosa, CDC0110, read-out: Minimum inhibitory concentration, P. aeruginosa CDC-0110
A. baumannii ATCC 17978 = assay: microbe, parasite or virus in culture; assay type: cell-based; details: Acinetobacter baumannii, ATCC17978, read-out: MIC, A. baumannii ATCC 17978
A. baumannii CDC-0036 = assay: microbe, parasite or virus in culture; assay type: cell-based; details: Acinetobacter baumannii, CDC0036, read-out: MIC, A. baumannii CDC-0036
N. gonorrhoeae MS11 = assay: Liquid broth MIC in Fastidious broth; details: Neisseria gonorrhoeae
[1] = biological target: T1, PBP3 from Escherichia coli (K-12) (Escherichia coli, UniProt P0AD68); assay: Bocillin-FL fluorescence polarization competition binding, E. coli PBP3
T1 construct: made in house
T1 sequence (P0AD68 1-577): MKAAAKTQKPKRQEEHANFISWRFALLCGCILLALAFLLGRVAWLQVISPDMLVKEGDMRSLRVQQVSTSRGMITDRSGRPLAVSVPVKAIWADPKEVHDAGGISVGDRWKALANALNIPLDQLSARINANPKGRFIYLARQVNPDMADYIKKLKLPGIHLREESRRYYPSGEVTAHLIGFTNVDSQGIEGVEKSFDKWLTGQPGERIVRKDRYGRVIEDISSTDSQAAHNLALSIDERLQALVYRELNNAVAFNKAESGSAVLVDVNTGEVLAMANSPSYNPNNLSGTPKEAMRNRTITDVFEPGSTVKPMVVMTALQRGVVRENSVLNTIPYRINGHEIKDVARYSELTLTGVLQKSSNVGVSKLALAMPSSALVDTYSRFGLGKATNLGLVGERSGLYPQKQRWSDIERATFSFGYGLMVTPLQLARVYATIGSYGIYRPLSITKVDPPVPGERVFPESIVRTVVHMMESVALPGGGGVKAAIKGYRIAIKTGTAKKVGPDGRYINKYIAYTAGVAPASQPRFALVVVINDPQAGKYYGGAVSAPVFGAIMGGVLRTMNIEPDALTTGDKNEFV
How it was run: (§1)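 Purified PBPs pre-incubated with inhibitor (E. coli PBP3 1.5 μM, 30 min; P. aeruginosa PBP3 0.75 μM, A. baumannii PBP1a 1 μM and PBP3 0.2 μM, 15 min), then Bocillin-FL 0.1 μM (0.05 μM for PBP1a) added; FP read up to 60 min. EC50 = concentration halving bound Bocillin-FL.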

P. aeruginosa CDC-0054 = assay: microbe, parasite or virus in culture; assay type: cell-based; details: Pseudomonas aeruginosa, CDC0054, read-out: Minimum inhibitory concentration, P. aeruginosa CDC-0054
P. aeruginosa CDC-0095 = assay: microbe, parasite or virus in culture; assay type: cell-based; details: Pseudomonas aeruginosa, CDC0095, read-out: Minimum inhibitory concentration, P. aeruginosa CDC-0095
A. baumannii CDC-0033 = assay: microbe, parasite or virus in culture; assay type: cell-based; details: Acinetobacter baumannii, CDC0033, read-out: MIC, A. baumannii CDC-0033
N. gonorrhoeae FA1090 = assay: Liquid broth MIC in Fastidious broth; details: Neisseria gonorrhoeae
Protocol: Additional antibacterial testing of the series was performed in 8 reference strains of N. gonorrhoeae (ATCC 49226, FA1090, MS 11, WHO G, WHO L, WHO M, WHO K, WHO X, WHO Z, WHO Q, CDC-0197). ATCC 49226, FA1090, MS11, WHO G, WHO L, and WHO M produce wild type or wild-type like PBP2. WHO K, WHO X, WHO Z, WHO Q, and CDC-0197 produce mosaic PBP2. Liquid broth-based assays were used for antibacterial testing of PBP inhibitors in Neisseria gonorrhoeae. Briefly, cryo-preserved bacterial cultures of clinical strains were streaked for isolation on Chocolate Agar (72 g/L (2×) GC Agar Base (BD #228950) and 2% (2×) Hemoglobin was autoclaved at 121° C. for 20 minutes to sterilize. Once cooled to ˜50° C. the 2×GC Agar Base and 2× Hemoglobin solutions are combined and 1% IsoVitaleX Enrichment (BD #211876) was added to the solution). Strains were incubated at 36° C. and 5% CO2 to allow growth of colonies, 24 hours before inoculum preparation. 2-fold serial dilutions of test compounds were conducted in a 96 well plate with a final volume of 75 μL per well at 2-fold the final desired concentration in Fastidious broth (Remel #R07664). For preparation of assay inoculum, a direct suspension was prepared by aseptically swabbing 10-15 colonies from agar plates into culture tubes containing 2 mL of fresh sterile saline. After the dilution plates were set up, direct suspensions were then diluted in a cuvette containing sterile saline and the optical density was measured at 600 nm. Inocula were diluted such that 75 μL of this culture in Fastidious broth results in a starting bacterial concentration of 5×10^5 CFU/mL when added to the dilution plates. The plates were incubated for ˜24 hours at 36° C. and 5% CO2.

[2] = system: B. humptydooensis ATCC BAA-2767; assay: microbe, parasite or virus in culture; assay type: cell-based; details: Burkholderia humptydooensis, ATCCBAA2767, read-out: Minimum inhibitory concentration (MIC), B. humptydooensis ATCC BAA-2767
[3] = biological target: T2, PBP3 from Pseudomonas aeruginosa (PAO1) (Pseudomonas aeruginosa, UniProt G3XD46); assay: Bocillin-FL fluorescence polarization competition binding, P. aeruginosa PBP3; details: Binding affinity to P. aeruginosa PBP3; fluorescence polarization competition binding assay using Bocillin-FL; read-out: P. aeruginosa PBP3 Potency
T2 construct: made in house
T2 sequence (G3XD46 whole entry): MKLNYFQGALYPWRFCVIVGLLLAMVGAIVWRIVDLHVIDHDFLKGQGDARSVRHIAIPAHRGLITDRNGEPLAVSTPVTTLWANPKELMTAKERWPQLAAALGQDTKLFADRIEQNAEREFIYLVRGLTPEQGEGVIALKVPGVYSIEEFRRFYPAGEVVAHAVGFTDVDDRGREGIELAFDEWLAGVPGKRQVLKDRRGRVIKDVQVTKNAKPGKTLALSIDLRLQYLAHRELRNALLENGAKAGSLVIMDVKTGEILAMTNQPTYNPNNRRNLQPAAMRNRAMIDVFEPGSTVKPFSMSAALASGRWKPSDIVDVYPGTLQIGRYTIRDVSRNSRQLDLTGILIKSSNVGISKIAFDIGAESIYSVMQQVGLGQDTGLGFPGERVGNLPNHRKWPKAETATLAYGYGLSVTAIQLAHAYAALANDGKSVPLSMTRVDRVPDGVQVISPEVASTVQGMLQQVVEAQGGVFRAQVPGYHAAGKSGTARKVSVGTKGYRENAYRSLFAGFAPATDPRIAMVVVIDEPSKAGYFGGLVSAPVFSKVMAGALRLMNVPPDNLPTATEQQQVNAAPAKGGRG
How it was run: as §1

P. aeruginosa ATCC 27853 = assay: microbe, parasite or virus in culture; assay type: cell-based; details: Pseudomonas aeruginosa, ATCC27853, read-out: Minimum inhibitory concentration, P. aeruginosa ATCC 27853
N. gonorrhoeae WHO K = assay: Liquid broth MIC in Fastidious broth; details: Neisseria gonorrhoeae
N. gonorrhoeae WHO L = assay: Liquid broth MIC in Fastidious broth; details: Neisseria gonorrhoeae
Protocol: Liquid broth-based assays were used for antibacterial testing of PBP inhibitors in Neisseria gonorrhoeae. Briefly, cryo-preserved bacterial cultures of clinical strains were streaked for isolation on Chocolate Agar (72 g/L (2×) GC Agar Base (BD #228950) and 2% (2×) Hemoglobin was autoclaved at 121° C. for 20 minutes to sterilize. Once cooled to ˜50° C. the 2×GC Agar Base and 2× Hemoglobin solutions are combined and 1% IsoVitaleX Enrichment (BD #211876) was added to the solution). Strains were incubated at 36° C. and 5% CO2 to allow growth of colonies, 24 hours before inoculum preparation. 2-fold serial dilutions of test compounds were conducted in a 96 well plate with a final volume of 75 μL per well at 2-fold the final desired concentration in Fastidious broth (Remel #R07664). For preparation of assay inoculum, a direct suspension was prepared by aseptically swabbing 10-15 colonies from agar plates into culture tubes containing 2 mL of fresh sterile saline. After the dilution plates were set up, direct suspensions were then diluted in a cuvette containing sterile saline and the optical density was measured at 600 nm. Inocula were diluted such that 75 μL of this culture in Fastidious broth results in a starting bacterial concentration of 5×10^5 CFU/mL when added to the dilution plates. The plates were incubated for ˜24 hours at 36° C. and 5% CO2.

[4] = read-out: Minimum Inhibitory Concentration (MIC), N. gonorrhoeae WHO Z
[5] = MS11, read-out: Minimum Inhibitory Concentration (MIC), N. gonorrhoeae MS11
[6] = FA1090, read-out: Minimum Inhibitory Concentration (MIC), N. gonorrhoeae FA 1090
[7] = read-out: Minimum Inhibitory Concentration (MIC), N. gonorrhoeae WHO K
[8] = read-out: Minimum Inhibitory Concentration (MIC), N. gonorrhoeae WHO L
[9] = read-out: Minimum Inhibitory Concentration, WHO Z
[10] = MS11, read-out: Minimum Inhibitory Concentration, MS11
[11] = FA1090, read-out: Minimum Inhibitory Concentration, FA 1090
[12] = read-out: Minimum Inhibitory Concentration, WHO K
[13] = read-out: Minimum Inhibitory Concentration, WHO L

| Structure (SMILES) | MIC (N. gonorrhoeae WHO Z; [4]) [µg/mL] | MIC (P. aeruginosa CDC-0110) [µg/mL] | MIC (A. baumannii ATCC 17978) [µg/mL] | MIC (A. baumannii CDC-0036) [µg/mL] | MIC (N. gonorrhoeae MS11; [5]) [µg/mL] | EC50 [1] [µM] | MIC (P. aeruginosa CDC-0054) [µg/mL] | MIC (P. aeruginosa CDC-0095) [µg/mL] | MIC (A. baumannii CDC-0033) [µg/mL] | MIC (N. gonorrhoeae FA1090; [6]) [µg/mL] | MIC [2] [µg/mL] | IC50 [3] [µM] | MIC (P. aeruginosa ATCC 27853) [µg/mL] | MIC (N. gonorrhoeae WHO K; [7]) [µg/mL] | MIC (N. gonorrhoeae WHO L; [8]) [µg/mL] | MIC (N. gonorrhoeae WHO Z; [9]) [µg/mL] | MIC (N. gonorrhoeae MS11; [10]) [µg/mL] | MIC (N. gonorrhoeae FA1090; [11]) [µg/mL] | MIC (N. gonorrhoeae WHO K; [12]) [µg/mL] | MIC (N. gonorrhoeae WHO L; [13]) [µg/mL] |
| --- | --- | --- | --- | --- | --- | --- | --- | --- | --- | --- | --- | --- | --- | --- | --- | --- | --- | --- | --- | --- |
| O=C(NCCCN1CCN(C(=O)NC(C(=O)N[C@H]2Cc3ccc(F)c(C(=O)O)c3OB2O)c2cc(F)c(O)c(O)c2Cl)C(=O)C1=O)c1cccc(O)c1 (stereo partly drawn) [Example 204, (3R)-3-(2-(2-chloro-5-fluoro-3,4-dihydroxyphenyl)-2-(4-(3-(3-hydroxybenzamido)propyl)-2,3-dioxopiperazine-1-carboxamido)acetamido)-7-fluoro-2-hydroxy-3,4-dihydro-2H-benzo[e][1,2]oxaborinine-8-carboxylic acid] | 16 to 32 (≈ 21.1 to 42.1 µM) | < 1 | < 1 | 2 to 4 (≈ 2.63 to 5.26 µM) | 16 to 32 (≈ 21.1 to 42.1 µM) | < 10 | < 1 | < 1 | 2 to 4 (≈ 2.63 to 5.26 µM) | 1 to 2 (≈ 1.32 to 2.63 µM) | < 1 | < 10 | < 1 | > 64 | > 64 |  |  |  |  |  |
| O=C(NCCN1CCN(C(=O)NC(C(=O)N[C@H]2Cc3ccc(F)c(C(=O)O)c3OB2O)c2cc(F)c(O)c(O)c2Cl)C(=O)C1=O)c1cccnc1 (stereo partly drawn) [Example 217, (3R)-3-(2-(2-chloro-5-fluoro-3,4-dihydroxyphenyl)-2-(4-(2-(nicotinamido)ethyl)-2,3-dioxopiperazine-1-carboxamido)acetamido)-7-fluoro-2-hydroxy-3,4-dihydro-2H-benzo[e][1,2]oxaborinine-8-carboxylic acid] | 16 to 32 (≈ 21.9 to 43.8 µM) | < 1 | < 1 | 8 to 16 (≈ 10.9 to 21.9 µM) | 16 to 32 (≈ 21.9 to 43.8 µM) | < 10 | < 1 | 2 to 4 (≈ 2.74 to 5.47 µM) | 8 to 16 (≈ 10.9 to 21.9 µM) | 1 to 2 (≈ 1.37 to 2.74 µM) | < 1 | < 10 | 2 to 4 (≈ 2.74 to 5.47 µM) | > 64 | > 64 |  |  |  |  |  |
| O=C(NCCCN1CCN(C(=O)NC(C(=O)N[C@H]2Cc3ccc(F)c(C(=O)O)c3OB2O)c2cc(F)c(O)c(O)c2Cl)C(=O)C1=O)Nc1ccc(O)cc1 (stereo partly drawn) [Example 227, (3R)-3-(2-(2-chloro-5-fluoro-3,4-dihydroxyphenyl)-2-(4-(3-(3-(4-hydroxyphenyl)ureido)propyl)-2,3-dioxopiperazine-1-carboxamido)acetamido)-7-fluoro-2-hydroxy-3,4-dihydro-2H-benzo[e][1,2]oxaborinine-8-carboxylic acid] | 16 to 32 (≈ 20.6 to 41.3 µM) | < 1 | < 1 | 2 to 4 (≈ 2.58 to 5.16 µM) | 16 to 32 (≈ 20.6 to 41.3 µM) | 10 to 50 | < 1 | < 1 | 2 to 4 (≈ 2.58 to 5.16 µM) | 1 to 2 (≈ 1.29 to 2.58 µM) | < 1 | < 10 | < 1 | > 64 | > 64 |  |  |  |  |  |
| O=C(O)c1c(F)ccc2c1OB(O)[C@@H](NC(=O)C(NC(=O)N1CCN(S(=O)(=O)CCNC(=O)[C@@H]3CCCN3)C1=O)c1cc(F)c(O)c(O)c1Cl)C2 (stereo partly drawn) [Example 265, (3R)-3-(2-(2-chloro-5-fluoro-3,4-dihydroxyphenyl)-2-(2-oxo-3-((2-((S)-pyrrolidine-2-carboxamido)ethyl)sulfonyl)imidazolidine-1-carboxamido)acetamido)-7-fluoro-2-hydroxy-3,4-dihydro-2H-benzo[e][1,2]oxaborinine-8-carboxylic acid] |  | < 1 | < 1 | 2 to 4 (≈ 2.64 to 5.27 µM) |  | 10 to 50 | 2 to 4 (≈ 2.64 to 5.27 µM) | 2 to 4 (≈ 2.64 to 5.27 µM) | 8 to 16 (≈ 10.5 to 21.1 µM) |  | < 1 | < 10 | 2 to 4 (≈ 2.64 to 5.27 µM) |  |  | 4 to 8 (≈ 5.27 to 10.5 µM) | 16 to 32 (≈ 21.1 to 42.2 µM) | 4 to 8 (≈ 5.27 to 10.5 µM) | > 64 | > 64 |
| O=C(CN1CCN(C(=O)N[C@@H](C(=O)N[C@H]2Cc3ccc(F)c(C(=O)O)c3OB2O)c2cc(F)c(O)c(O)c2Cl)C(=O)C1=O)NCc1nccs1 [Example 241, (R)-3-((R)-2-(2-chloro-5-fluoro-3,4-dihydroxyphenyl)-2-(2,3-dioxo-4-(2-oxo-2-((thiazol-2-ylmethyl)amino)ethyl)piperazine-1-carboxamido)acetamido)-7-fluoro-2-hydroxy-3,4-dihydro-2H-benzo[e][1,2]oxaborinine-8-carboxylic acid] | 16 to 32 (≈ 21.7 to 43.4 µM) | < 1 | < 1 | 2 to 4 (≈ 2.71 to 5.43 µM) | 16 to 32 (≈ 21.7 to 43.4 µM) | < 10 | < 1 | 2 to 4 (≈ 2.71 to 5.43 µM) | 8 to 16 (≈ 10.9 to 21.7 µM) | 1 to 2 (≈ 1.36 to 2.71 µM) | 2 to 4 (≈ 2.71 to 5.43 µM) | < 10 | < 1 | 16 to 32 (≈ 21.7 to 43.4 µM) | > 64 |  |  |  |  |  |
| O=C(NCCN1CCN(C(=O)NC(C(=O)N[C@H]2Cc3ccc(F)c(C(=O)O)c3OB2O)c2cc(F)c(O)c(O)c2Cl)C1=O)c1nccs1 (stereo partly drawn) [Example 247, (3R)-3-(2-(2-chloro-5-fluoro-3,4-dihydroxyphenyl)-2-(2-oxo-3-(2-(thiazole-2-carboxamido)ethyl)imidazolidine-1-carboxamido)acetamido)-7-fluoro-2-hydroxy-3,4-dihydro-2H-benzo[e][1,2]oxaborinine-8-carboxylic acid] |  | < 1 | < 1 | < 1 |  | 10 to 50 | 2 to 4 (≈ 2.82 to 5.64 µM) | 2 to 4 (≈ 2.82 to 5.64 µM) | 2 to 4 (≈ 2.82 to 5.64 µM) |  | < 1 | < 10 | 2 to 4 (≈ 2.82 to 5.64 µM) |  |  | 16 to 32 (≈ 22.6 to 45.1 µM) | 16 to 32 (≈ 22.6 to 45.1 µM) | 4 to 8 (≈ 5.64 to 11.3 µM) | > 64 | > 64 |
| O=C(CN1CCN(C(=O)NC(C(=O)N[C@H]2Cc3ccc(F)c(C(=O)O)c3OB2O)c2cc(F)c(O)c(O)c2Cl)C(=O)C1=O)Nc1nccs1 (stereo partly drawn) [Example 235, (3R)-3-(2-(2-chloro-5-fluoro-3,4-dihydroxyphenyl)-2-(2,3-dioxo-4-(2-oxo-2-(thiazol-2-ylamino)ethyl)piperazine-1-carboxamido)acetamido)-7-fluoro-2-hydroxy-3,4-dihydro-2H-benzo[e][1,2]oxaborinine-8-carboxylic acid] | 16 to 32 (≈ 22.1 to 44.3 µM) | < 1 | < 1 | 2 to 4 (≈ 2.77 to 5.53 µM) | 16 to 32 (≈ 22.1 to 44.3 µM) | < 10 | 8 to 16 (≈ 11.1 to 22.1 µM) | 2 to 4 (≈ 2.77 to 5.53 µM) | 8 to 16 (≈ 11.1 to 22.1 µM) | 1 to 2 (≈ 1.38 to 2.77 µM) | < 1 | < 10 | 2 to 4 (≈ 2.77 to 5.53 µM) | 16 to 32 (≈ 22.1 to 44.3 µM) | > 64 |  |  |  |  |  |
| O=C(CN1CCN(C(=O)NC(C(=O)N[C@H]2Cc3ccc(F)c(C(=O)O)c3OB2O)c2cc(F)c(O)c(O)c2Cl)C(=O)C1=O)Nc1cccnc1 (stereo partly drawn) [Example 234, (3R)-3-(2-(2-chloro-5-fluoro-3,4-dihydroxyphenyl)-2-(2,3-dioxo-4-(2-oxo-2-(pyridin-3-ylamino)ethyl)piperazine-1-carboxamido)acetamido)-7-fluoro-2-hydroxy-3,4-dihydro-2H-benzo[e][1,2]oxaborinine-8-carboxylic acid] | 16 to 32 (≈ 22.3 to 44.6 µM) | < 1 | < 1 | 2 to 4 (≈ 2.79 to 5.58 µM) | 16 to 32 (≈ 22.3 to 44.6 µM) | < 10 | 2 to 4 (≈ 2.79 to 5.58 µM) | 32 to 64 (≈ 44.6 to 89.3 µM) | 8 to 16 (≈ 11.2 to 22.3 µM) | 1 to 2 (≈ 1.4 to 2.79 µM) | < 1 | < 10 | 2 to 4 (≈ 2.79 to 5.58 µM) | 16 to 32 (≈ 22.3 to 44.6 µM) | > 64 |  |  |  |  |  |
